Experimental data taken from the NIST ThermoML archive (doi:10.1016/j.fluid.2006.01.027).

Details: Liquid, Pulse-echo method

C=CCCCCCCCCCCCCCC [1-hexadecene]
speed of sound [m/s]
Details	303.15 K	313.15 K	323.15 K	333.15 K	343.15 K	353.15 K	363.15 K
100 kPa	1314.4	1278.1	1242.5	1207.6	1173.2	1139.5	1106.4
2500 kPa	1327.9	1292.1	1257.1	1222.7	1188.9	1155.8	1123.3
5000 kPa	1341.7	1306.4	1271.9	1238	1204.9	1172.3	1140.5
10000 kPa	1368.2	1333.9	1300.3	1267.5	1235.4	1204	1173.2
15000 kPa	1393.7	1360.2	1327.5	1295.6	1264.4	1233.9	1204.1
20000 kPa	1418.2	1385.5	1353.6	1322.4	1292.1	1262.4	1233.5
30000 kPa	1464.6	1433.2	1402.7	1372.9	1343.9	1315.7	1288.2
40000 kPa	1508	1477.8	1448.4	1419.8	1392	1364.9	1338.6
60000 kPa	1587.7	1559.3	1531.8	1505.1	1479.1	1453.9	1429.4
80000 kPa	1659.7	1632.8	1606.8	1581.5	1556.9	1533.1	1510
100000 kPa	1725.7	1700	1675.2	1651.1	1627.7	1605	1583
